Among the data in PubChem BioAssay (NCI) are TGI and GI50 values, retold here.

Each structure is given as a SMILES string.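 How tested: cells in 96-well plates exposed to compound for 48 hours at five concentrations. The concentration for 50% growth inhibition is given as GI50. Definition used: TGI = concentration required for complete inhibition of growth.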

In the first experiment the test system is MCF7 breast. Nature of the experiment: NCI-60 cell line screen, 48 h.
Compound `COc1c(Br)cc2c(c1OC)C(Br)CCC(Br)(Br)C2=O` (configuration not stated) had a TGI of 6.13 µM.

On to `O=C1C=CC2(C=C1)O[C@H](Cc1ccccc1)[C@@H](Cc1ccccc1)O2`, for which the TGI amounted to 1.51 µM.

Turning to `CCCNC(=O)C(C)C1CCC2(C)C=CC(=O)C(C)=C2C1O` (configuration not stated), the TGI was over 100 µM.

Consider `Nc1ccn(C2C=C(CO)C(O)C2O)c(=O)c1` (configuration not stated), for which the TGI was over 625 µM.

The test system of the next experiment is NCI-H23 lung. In words: NCI-60 cell line screen, 48 h.
Compound `N#C[C@H](OC1OC(COC2OC(CO)C(O)C(O)C2O)C(O)C(O)C1O)c1ccccc1` (some centres not stated) gave a TGI of over 250 µM.

Consider `CCN(CC)c1ccc2cc(C(=O)Nc3ccc4[nH]c(C(=O)N5C[C@@H](CCl)c6c5cc(OC(=O)Nc5ccccc5)c5[nH]cc(C)c65)cc4c3)oc2c1`, for which the GI50 is 230 µM and the TGI was over 1000 µM.

`Cn1c(=O)c2[nH]c(CCNC(=O)c3ccccc3)nc2n(C)c1=O` showed a TGI of over 100 µM.

Consider `Cc1cc(S(=O)(=O)Nc2nc3ccccc3nc2-c2cccc([N+](=O)[O-])c2)c(S)cc1Cl`, for which the TGI is 33.7 µM.

`O=c1ssc(=Nc2ccccc2)n1-c1ccccc1` gave a TGI of 50.2 µM.

On to `NCCSS(=O)(=O)CCN`, for which the TGI was over 100 µM.

Turning to `CC(=O)Oc1cc2c(cc1OC(C)=O)OCC(c1ccccc1)C2` (configuration not stated), the TGI was found to be 77.6 µM.

The compound `OCCNCCN1CCN(CCCN2c3ccccc3Sc3ccc(C(F)(F)F)cc32)CC1` returned a TGI of 51 µM.

The compound `O=C(O)c1cc2c(ncc3c(=O)n(-c4ccccc4)[nH]c32)s1` displayed a TGI of over 100 µM.

Consider `O=C(CCl)NNC1=Nc2ccc(Cl)cc2SC1`, for which the TGI amounted to 6.27 µM.

In turn, `CCCc1c(-c2ccccc2)[nH]c2ccccc2c1=O` showed a TGI of over 100 µM.

In turn, `Cc1ccc(C2OC(COCc3ccc(Cl)cc3)C(OCc3ccc(Cl)cc3)C2O)cc1` (configuration not stated) showed a TGI of 40.3 µM.

Take `CO/N=C(/C)c1ccc(NC(=O)CSc2nnc(-c3ccncc3)n2-c2ccccc2)cc1`: the GI50 is 4.24 µM and the TGI was over 100 µM.

Compound `C[N+](C)(C)CCc1ccccc1` came in with a TGI of over 100 µM.

Compound `COc1c(Br)cc2c(c1OC)C(Br)CCC(Br)(Br)C2=O` (configuration not stated) returned a TGI of 3.71 µM.

In turn, `O=C1C=CC2(C=C1)O[C@H](Cc1ccccc1)[C@@H](Cc1ccccc1)O2` gave a TGI of 3.48 µM.

Take `CCCNC(=O)C(C)C1CCC2(C)C=CC(=O)C(C)=C2C1O` (configuration not stated): the TGI was over 100 µM.

The compound `O=C(Nc1nc2ccc([N+](=O)[O-])cc2s1)C(=O)C(C(=O)c1ccccc1F)C1OC(=O)c2ccccc21` (configuration not stated) showed a TGI of over 100 µM.

In turn, `COc1nc(=O)n(COC(CO)CN2C(=O)c3ccccc3C2=O)cc1Cc1cccc(OCc2ccccc2)c1` (configuration not stated) showed a TGI of over 100 µM.

Another experiment deals with SF-539 CNS. Nature of the experiment: NCI-60 cell line screen, 48 h.
With `N#C[C@H](OC1OC(COC2OC(CO)C(O)C(O)C2O)C(O)C(O)C1O)c1ccccc1` (some centres not stated), the TGI was over 250 µM.

`CCN(CC)c1ccc2cc(C(=O)Nc3ccc4[nH]c(C(=O)N5C[C@@H](CCl)c6c5cc(OC(=O)Nc5ccccc5)c5[nH]cc(C)c65)cc4c3)oc2c1` returned a TGI of 796 µM.

As to `Cc1cc(S(=O)(=O)Nc2nc3ccccc3nc2-c2cccc([N+](=O)[O-])c2)c(S)cc1Cl`, the TGI worked out at 38.1 µM.

Consider `O=c1ssc(=Nc2ccccc2)n1-c1ccccc1`, for which the TGI is over 100 µM.

The compound `NCCSS(=O)(=O)CCN` displayed a TGI of over 100 µM.

As to `CC(=O)Oc1cc2c(cc1OC(C)=O)OCC(c1ccccc1)C2` (configuration not stated), the TGI stood at 48.7 µM.

For `OCCNCCN1CCN(CCCN2c3ccccc3Sc3ccc(C(F)(F)F)cc32)CC1`, the TGI was found to be 34.5 µM.

`O=C(O)c1cc2c(ncc3c(=O)n(-c4ccccc4)[nH]c32)s1` yielded a TGI of over 100 µM.

The compound `O=C(CCl)NNC1=Nc2ccc(Cl)cc2SC1` came in with a TGI of 3.77 µM.

With `CCCc1c(-c2ccccc2)[nH]c2ccccc2c1=O`, the TGI was over 100 µM.

Compound `Cc1ccc(C2OC(COCc3ccc(Cl)cc3)C(OCc3ccc(Cl)cc3)C2O)cc1` (configuration not stated) displayed a TGI of 36.2 µM.

The compound `C[N+](C)(C)CCc1ccccc1` registered a TGI of over 100 µM.

In turn, `COc1c(Br)cc2c(c1OC)C(Br)CCC(Br)(Br)C2=O` (configuration not stated) displayed a TGI of 5.25 µM.

Compound `O=C1C=CC2(C=C1)O[C@H](Cc1ccccc1)[C@@H](Cc1ccccc1)O2` showed a TGI of 1.02 µM.

Turning to `CCCNC(=O)C(C)C1CCC2(C)C=CC(=O)C(C)=C2C1O` (configuration not stated), the TGI was over 100 µM.

`O=C(Nc1nc2ccc([N+](=O)[O-])cc2s1)C(=O)C(C(=O)c1ccccc1F)C1OC(=O)c2ccccc21` (configuration not stated) registered a TGI of 48.3 µM.

In turn, `Nc1ccn(C2C=C(CO)C(O)C2O)c(=O)c1` (configuration not stated) displayed a TGI of over 625 µM.

In turn, `COc1nc(=O)n(COC(CO)CN2C(=O)c3ccccc3C2=O)cc1Cc1cccc(OCc2ccccc2)c1` (configuration not stated) returned a TGI of 34.2 µM.

The test system of the next experiment is SK-MEL-28 melanoma. Nature of the experiment: NCI-60 cell line screen, 48 h.
In the case of `N#C[C@H](OC1OC(COC2OC(CO)C(O)C(O)C2O)C(O)C(O)C1O)c1ccccc1` (some centres not stated), the TGI is over 250 µM.

Regarding `CCN(CC)c1ccc2cc(C(=O)Nc3ccc4[nH]c(C(=O)N5C[C@@H](CCl)c6c5cc(OC(=O)Nc5ccccc5)c5[nH]cc(C)c65)cc4c3)oc2c1`, the GI50 is 401 µM and the TGI is over 1000 µM.

`Cn1c(=O)c2[nH]c(CCNC(=O)c3ccccc3)nc2n(C)c1=O` displayed a TGI of over 100 µM.

Turning to `Cc1cc(S(=O)(=O)Nc2nc3ccccc3nc2-c2cccc([N+](=O)[O-])c2)c(S)cc1Cl`, the TGI came to 32.9 µM.

As to `O=c1ssc(=Nc2ccccc2)n1-c1ccccc1`, the TGI is over 100 µM.

Compound `NCCSS(=O)(=O)CCN` displayed a TGI of over 100 µM.

As to `CC(=O)Oc1cc2c(cc1OC(C)=O)OCC(c1ccccc1)C2` (configuration not stated), the TGI is 53.1 µM.

Compound `OCCNCCN1CCN(CCCN2c3ccccc3Sc3ccc(C(F)(F)F)cc32)CC1` returned a TGI of 39.5 µM.

In the case of `O=C(O)c1cc2c(ncc3c(=O)n(-c4ccccc4)[nH]c32)s1`, the TGI was over 100 µM.

`O=C(CCl)NNC1=Nc2ccc(Cl)cc2SC1` returned a TGI of 3.92 µM.

Take `CCCc1c(-c2ccccc2)[nH]c2ccccc2c1=O`: the TGI was over 100 µM.

In turn, `Cc1ccc(C2OC(COCc3ccc(Cl)cc3)C(OCc3ccc(Cl)cc3)C2O)cc1` (configuration not stated) gave a TGI of over 100 µM.

As to `CO/N=C(/C)c1ccc(NC(=O)CSc2nnc(-c3ccncc3)n2-c2ccccc2)cc1`, the GI50 was over 100 µM and the TGI was over 100 µM.

In the case of `C[N+](C)(C)CCc1ccccc1`, the TGI is over 100 µM.

With `COc1c(Br)cc2c(c1OC)C(Br)CCC(Br)(Br)C2=O` (configuration not stated), the TGI came to 8.88 µM.

Consider `O=C1C=CC2(C=C1)O[C@H](Cc1ccccc1)[C@@H](Cc1ccccc1)O2`, for which the TGI came out at 1.71 µM.

Consider `CCCNC(=O)C(C)C1CCC2(C)C=CC(=O)C(C)=C2C1O` (configuration not stated), for which the TGI was over 100 µM.

`O=C(Nc1nc2ccc([N+](=O)[O-])cc2s1)C(=O)C(C(=O)c1ccccc1F)C1OC(=O)c2ccccc21` (configuration not stated) yielded a TGI of over 100 µM.

`COc1nc(=O)n(COC(CO)CN2C(=O)c3ccccc3C2=O)cc1Cc1cccc(OCc2ccccc2)c1` (configuration not stated) came in with a TGI of 36.2 µM.

The subject of the next experiment is SNB-75 CNS. In words: NCI-60 cell line screen, 48 h.
With `N#C[C@H](OC1OC(COC2OC(CO)C(O)C(O)C2O)C(O)C(O)C1O)c1ccccc1` (some centres not stated), the TGI was over 250 µM.

`CCN(CC)c1ccc2cc(C(=O)Nc3ccc4[nH]c(C(=O)N5C[C@@H](CCl)c6c5cc(OC(=O)Nc5ccccc5)c5[nH]cc(C)c65)cc4c3)oc2c1` showed a TGI of over 1000 µM.

For the compound `Cn1c(=O)c2[nH]c(CCNC(=O)c3ccccc3)nc2n(C)c1=O`, the TGI was over 100 µM.

For `O=c1ssc(=Nc2ccccc2)n1-c1ccccc1`, the TGI is over 100 µM.

Regarding `NCCSS(=O)(=O)CCN`, the TGI is over 100 µM.

`CC(=O)Oc1cc2c(cc1OC(C)=O)OCC(c1ccccc1)C2` (configuration not stated) yielded a TGI of 26.6 µM.

For the compound `O=C(CCl)NNC1=Nc2ccc(Cl)cc2SC1`, the TGI amounted to 5.14 µM.

Regarding `C[N+](C)(C)CCc1ccccc1`, the TGI is over 100 µM.

`COc1c(Br)cc2c(c1OC)C(Br)CCC(Br)(Br)C2=O` (configuration not stated): the TGI is 22.2 µM.

`O=C1C=CC2(C=C1)O[C@H](Cc1ccccc1)[C@@H](Cc1ccccc1)O2` displayed a TGI of 7.23 µM.

Compound `CCCNC(=O)C(C)C1CCC2(C)C=CC(=O)C(C)=C2C1O` (configuration not stated) came in with a TGI of over 100 µM.

`O=C(Nc1nc2ccc([N+](=O)[O-])cc2s1)C(=O)C(C(=O)c1ccccc1F)C1OC(=O)c2ccccc21` (configuration not stated) returned a TGI of 74.5 µM.

In the case of `Nc1ccn(C2C=C(CO)C(O)C2O)c(=O)c1` (configuration not stated), the TGI is over 625 µM.

The compound `COc1nc(=O)n(COC(CO)CN2C(=O)c3ccccc3C2=O)cc1Cc1cccc(OCc2ccccc2)c1` (configuration not stated) had a TGI of 46.2 µM.

The next experiment has as its system UACC-62 melanoma. In words: NCI-60 cell line screen, 48 h.
Regarding `N#C[C@H](OC1OC(COC2OC(CO)C(O)C(O)C2O)C(O)C(O)C1O)c1ccccc1` (some centres not stated), the TGI was over 250 µM.

In the case of `CCN(CC)c1ccc2cc(C(=O)Nc3ccc4[nH]c(C(=O)N5C[C@@H](CCl)c6c5cc(OC(=O)Nc5ccccc5)c5[nH]cc(C)c65)cc4c3)oc2c1`, the GI50 was 44.5 µM.

Consider `Cn1c(=O)c2[nH]c(CCNC(=O)c3ccccc3)nc2n(C)c1=O`, for which the TGI is over 100 µM.

On to `Cc1cc(S(=O)(=O)Nc2nc3ccccc3nc2-c2cccc([N+](=O)[O-])c2)c(S)cc1Cl`, for which the TGI is 31.8 µM.

With `O=c1ssc(=Nc2ccccc2)n1-c1ccccc1`, the TGI is over 100 µM.

As to `NCCSS(=O)(=O)CCN`, the TGI was over 100 µM.

Take `CC(=O)Oc1cc2c(cc1OC(C)=O)OCC(c1ccccc1)C2` (configuration not stated): the TGI came to 53.3 µM.

`OCCNCCN1CCN(CCCN2c3ccccc3Sc3ccc(C(F)(F)F)cc32)CC1` showed a TGI of 41.2 µM.

Take `O=C(O)c1cc2c(ncc3c(=O)n(-c4ccccc4)[nH]c32)s1`: the TGI was over 100 µM.

`O=C(CCl)NNC1=Nc2ccc(Cl)cc2SC1` displayed a TGI of 5.46 µM.

In turn, `CCCc1c(-c2ccccc2)[nH]c2ccccc2c1=O` gave a TGI of over 100 µM.

`Cc1ccc(C2OC(COCc3ccc(Cl)cc3)C(OCc3ccc(Cl)cc3)C2O)cc1` (configuration not stated) displayed a TGI of 18.7 µM.

The compound `C[N+](C)(C)CCc1ccccc1` yielded a TGI of over 100 µM.

Compound `COc1c(Br)cc2c(c1OC)C(Br)CCC(Br)(Br)C2=O` (configuration not stated) displayed a TGI of 13.1 µM.

As for `O=C1C=CC2(C=C1)O[C@H](Cc1ccccc1)[C@@H](Cc1ccccc1)O2`, the TGI was determined as 4.05 µM.

On to `CCCNC(=O)C(C)C1CCC2(C)C=CC(=O)C(C)=C2C1O` (configuration not stated), for which the TGI is over 100 µM.

The compound `O=C(Nc1nc2ccc([N+](=O)[O-])cc2s1)C(=O)C(C(=O)c1ccccc1F)C1OC(=O)c2ccccc21` (configuration not stated) had a TGI of over 100 µM.

Compound `Nc1ccn(C2C=C(CO)C(O)C2O)c(=O)c1` (configuration not stated) came in with a TGI of over 625 µM.

Consider `COc1nc(=O)n(COC(CO)CN2C(=O)c3ccccc3C2=O)cc1Cc1cccc(OCc2ccccc2)c1` (configuration not stated), for which the TGI is 28.5 µM.
